Consider eleven molecules from PubChem BioAssay (NCI).

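How tested: cells in 96-well plates exposed to compound for 48 hours at five concentrations. GI50: concentration for 50% inhibition of growth. TGI marks complete inhibition of growth.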 Where only a bound is given, the exact number is not on record here.

Common to all, as to test: growth of human tumour cells (NCI), 48 h
Assay [1] has as its system UACC-62 melanoma.
The test system of assay [2] is UO-31 renal.
Assay [3] deals with HCT-15 colon.
The test system of assay [4] is COLO 205 colon.
Assay [5] has as its system U251 CNS.
The test system of assay [6] is SNB-19 CNS.
The subject of assay [7] is SK-MEL-5 melanoma.
Assay [8] concerns DMS 273 small cell lung.
Assay [9] deals with KM20L2 colon.
For assay [10], the system named is CAKI-1 renal.
In assay [11] the test system is M14 melanoma.
The subject of assay [12] is MCF7 breast.

As for `Cc1ccc(S(=O)(=O)Nc2cccc3c(=O)[nH]cnc23)cc1`, the TGI in assay [1], in assay [2], in assay [3], in [4], in [5] and in assay [6] was greater than 100 µM throughout. Besides, the TGI in assay [7], in [8], in [9], in [10] and in [11] was greater than 100 µM throughout.
As for `CN(C)CCNC(=O)c1cccc2c(=O)c3ccccc3oc12`, the TGI was greater than 76.2 µM in assay [1]; 55 µM in assay [2]; greater than 100 µM in assay [3]; 19.4 µM in [4]; greater than 100 µM in assay [5]; 97.7 µM in assay [6]. For the same molecule, the TGI is 60.5 µM in [7], greater than 91.2 µM in assay [8], greater than 100 µM in assay [9] and 74 µM in assay [12].
Turning to `COC1OC(CS(=O)(=O)O)C(O)C(O)C1O` (stereo not given), the TGI in assay [1], in [2], in assay [3], in assay [4], in assay [5] and in assay [6] was greater than 100 µM each time. Also, the TGI in assay [7], in assay [10], in [12] and in [11] was greater than 100 µM throughout.
Consider `O=C1C=C(C2OC(CO)C(O)C2O)C(=O)N1` (stereo not given), for which the TGI in [1], in [2], in assay [3], in assay [4], in assay [5] and in [6] was greater than 100 µM in each case. Besides, the TGI in assay [7], in assay [8], in assay [9] and in [12] was greater than 100 µM each time.
For the molecule `C=C1C(=O)OC2/C=C(\C(=O)O)CC/C=C(\C)CC(OC(=O)/C=C(\C)CC)C12` (stereo not given), the TGI worked out at 28.5 µM in assay [1]; 41.9 µM in [2]; 28.6 µM in assay [3]; 31.3 µM in assay [4]; 30.7 µM in assay [5]; 33.5 µM in assay [6]. Also, the TGI in [7] turned out to be 32.9 µM; in assay [8], 34 µM; in assay [9], 39.5 µM; in assay [10], 54.1 µM; in assay [11] it was 31.2 µM.
`O=C(c1ccccc1)c1ccc2n[se]nc2c1`: the TGI in assay [1] was greater than 100 µM; in assay [2] it was greater than 100 µM; in assay [3], greater than 100 µM; in [4], 84.1 µM; in [5], greater than 100 µM; in assay [6], greater than 100 µM. For the same molecule, the TGI in [7], in assay [8], in assay [9], in assay [10] and in [11] was greater than 100 µM in each case.
For the molecule `CC1(C)[C@@H]2CC[C@]1(C)[C@H](OC(=O)CSC#N)C2`, the TGI in assay [1], in assay [2], in assay [3], in assay [4], in assay [5] and in [6] was greater than 100 µM each time. For the same molecule, the TGI in assay [7], in assay [10], in assay [12] and in assay [11] was greater than 100 µM in each case.
Take `CC1=C2C(O)C(C(C)C(=O)N(C)C)CCC2(C)C=CC1=O` (stereo not given): the TGI in [1], in [2], in assay [3], in assay [4], in assay [5] and in [6] was greater than 100 µM in each case. The TGI in assay [7], in assay [8], in [9], in assay [10] and in [12] was greater than 100 µM throughout.
As to `CC(=O)C(C(c1ccccc1)N1CCOCC1)N1CCOCC1` (stereo not given), the TGI in [1], in [2], in assay [3], in assay [4], in assay [5] and in [6] was greater than 100 µM each time. In addition, the TGI in [7], in assay [10], in [12] and in assay [11] was greater than 100 µM each time.
As for `CCCC(C)c1ccc(OCCCCCCN2CCNCC2)cc1` (stereo not given), the GI50 in assay [1] was 1.95 µM; in [2], 4.32 µM; in assay [3] it was 1.88 µM; in assay [4], 1.65 µM; in assay [5], 1.57 µM; in assay [6] it was 3.2 µM. Moreover, the GI50 in assay [7] is 1.67 µM; in assay [10] it was 1.99 µM. The TGI in [1] is 3.71 µM; in assay [2], 20.3 µM; in [3] it was 3.77 µM; in [4], 3.42 µM; in [5] it was 3.07 µM; in [6] it was 13.6 µM. Also, the TGI in assay [7] is 3.1 µM; in assay [10] it was 4.45 µM.
In the case of `CCOP(=Nc1ccc(N(C)C)cc1)(OCC)OCC`, the TGI in [1], in [2], in assay [3], in assay [4], in assay [5] and in assay [6] was greater than 100 µM each time. In addition, the TGI in assay [7], in [10], in assay [12] and in assay [11] was greater than 100 µM in each case.
